In patent publication US20250064773A1, “TARGETING ERO1 ALPHA WITH AURONE DERIVATIVES” (West Virginia University Board of Governors on behalf of …, priority 2021, published 2025):

Key:
[1] = target: T1, ERO1α (Homo sapiens, UniProt Q96HE7); assay: Cellular thermal shift assay (CETSA) in PC-9 cells, ERO1α; type: cell-based; details: 100 μM, 1 hour at 37° C.
T1 construct: endogenous in cells; host or cells: PC-9
T1 sequence (Q96HE7 24-468): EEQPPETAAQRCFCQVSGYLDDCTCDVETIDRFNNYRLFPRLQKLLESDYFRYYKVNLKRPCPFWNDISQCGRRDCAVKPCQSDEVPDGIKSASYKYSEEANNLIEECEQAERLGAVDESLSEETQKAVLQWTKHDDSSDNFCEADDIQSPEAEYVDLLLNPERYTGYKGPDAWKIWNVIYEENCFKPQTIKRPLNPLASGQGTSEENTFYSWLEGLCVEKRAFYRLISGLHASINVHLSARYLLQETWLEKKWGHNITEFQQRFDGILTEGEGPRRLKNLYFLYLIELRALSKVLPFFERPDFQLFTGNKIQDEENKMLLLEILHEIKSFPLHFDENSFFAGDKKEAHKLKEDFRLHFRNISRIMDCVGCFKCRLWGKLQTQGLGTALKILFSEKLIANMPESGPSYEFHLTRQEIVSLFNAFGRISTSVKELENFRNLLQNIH
Description: (§1) To date activity of T151742 towards other flavoenzymes has not been identified at this time. We utilized the Cellular Thermal Shift Assay (CETSA) to determine target engagement of T151742 in vitro using the non-small cell lung cancer (NSCLC) cell line PC-9. The EGFR driven PC-9 cell line was chosen as new treatment strategies are needed in EGFR driven NSCLC as most patients relapse and become resistant to current targeted therapies with development of further mutations such as T790M, C797S as well as emergence of EGFR independent tumors^42, 43. […] First, we determined the aggregation temperature (Tagg) of ERO1α, ERO1β, and LSD-1, which are all FAD dependent enzymes and potential in vitro targets of T15742. […]
(§2) Upon addition of T151742, Tagg was quantified for ERO1α, ERO1β, and LSD-1. Quantification of the average of n=3 independent experiments based on western blot analysis for ERO1α, ERO1β, and LSD-1. […] Cellular viability was determined by MTT assay. n=3 independent experiments performed in quadruplicates. ****p<0.0001; by two-way ANOVA.
(§3) Cell Lines: PC-9 cell line used was obtained from Sigma Aldrich and grown in RPMI 1640 medium with 10% fetal bovine serum and 1% penicillin/streptomycin. […] Plate was then read on the BioTek Cytation 5 at 530/590 nm. […]

[2] = target: T2, LSD-1 (Homo sapiens, UniProt O60341); assay: LSD-1 inhibitor screening assay kit (demethylase activity); type: biochemical; details: at concentrations ≤25 μM
Description: T151742 was used to generate a concentration response. […] Experiments performed in triplicates and shown is the mean and standard deviation of three independent experiments.

[3] = tested on: myeloma cells lines; assay: MTT viability assay, myeloma cell lines; type: cell-based
[4] = target: T3, purified human ERO1α (Homo sapiens, UniProt Q96HE7, C104A/C131A/C166A); assay: Lineweaver-Burk enzyme kinetics with varying PDI (Amplex Red); type: biochemical; details: varying PDI and T151742 concentrations
T3 construct: made in house
T3 sequence (Q96HE7 22-468 C104A/C131A/C166A): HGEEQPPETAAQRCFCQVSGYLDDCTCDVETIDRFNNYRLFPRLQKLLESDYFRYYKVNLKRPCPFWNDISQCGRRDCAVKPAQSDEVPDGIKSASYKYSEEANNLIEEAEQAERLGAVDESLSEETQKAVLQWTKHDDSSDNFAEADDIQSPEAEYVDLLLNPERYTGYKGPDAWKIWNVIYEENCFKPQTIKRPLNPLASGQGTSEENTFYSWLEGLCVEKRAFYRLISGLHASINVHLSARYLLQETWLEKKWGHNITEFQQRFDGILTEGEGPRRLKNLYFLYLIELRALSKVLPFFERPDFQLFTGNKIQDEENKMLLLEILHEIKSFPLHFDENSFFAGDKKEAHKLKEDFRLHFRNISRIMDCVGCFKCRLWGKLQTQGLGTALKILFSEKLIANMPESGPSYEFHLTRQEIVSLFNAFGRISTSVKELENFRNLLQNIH

[5] = target: T2, LSD-1; assay: Cellular thermal shift assay (CETSA) in PC-9 cells, LSD-1; type: cell-based; details: 100 μM
Description: as §1, §2, §3

CN(C)c1ccc(/C=C2\Oc3cc(O)ccc3C2=O)cc1 [Compound T151742]
Tagg for ERO1α [1]: > 60 °C | shift of Tagg for ERO1α [1]: ~6 degrees | inhibition of LSD-1 demethylase activity [2]: did not inhibit | IC50 [3]: 7 to 9 µM | mechanism of inhibition of ERO1α [4]: non-competitive (mixed) inhibitor | change of Tagg for LSD-1 [5]: did not change
